This note sets out measurements from patent publication US12012467B2, “Small molecule DCN1 inhibitors and therapeutic methods using the same” (THE REGENTS OF THE UNIVERSITY OF MICHIGAN, priority 2017, dated 2024).

One may read the IC50 as the concentration at which inhibition is half-maximal.

The target of this test is DCN1 (Homo sapiens (Human), UniProt Q96GG9). In words: Competitive FP binding assay. The gist of the method: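 FP competition with DCN1 in 100 mM phosphate pH 6.5, 0.02% Tween-20, 2% DMSO, probe 5 nM final. Equilibrated 30 min at room temperature with shaking. DCN1 was His6-tagged (uncleaved), expressed in E. coli Rosetta2 and purified by Ni-NTA and gel filtration.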
Where [1] appears, read: bounds given in μM, read-out: Binding affinity to DCN1 (IC50).
[2] abbreviates: read-out: Binding affinity to DCN1 (IC50 (nM)).

Where two headings read alike, the source gives them in different places. Numbered stars: 1 amine (or outer) side, 2 acyl side, 3 side chain; on linkers, the order of the positions; unused ones are H or OH. Square brackets hold non-standard residues; d marks the D form. Peptide text beside a SMILES is read from it. * marks the point of attachment. Ala(6-iPr-benzothiazol-2-yl) = CC(C)c1ccc2nc(C[C@H](N)C(=O)O)sc2c1; 2Nal = N[C@@H](Cc1ccc2ccccc2c1)C(=O)O; Gly(4-THP) = N[C@H](C(=O)O)C1CCOCC1; Cyclopropanecarbonyl = O=C(C1CC1)*; NHPhenethyl = c1ccc(CCN*)cc1; Abu = CC[C@H](N)C(=O)O; CO = O=C([*:1])[*:2]; Propionyl = CCC(=O)*; Butyryl = CCCC(=O)*

Sequence of DCN1 (Q96GG9 58-259): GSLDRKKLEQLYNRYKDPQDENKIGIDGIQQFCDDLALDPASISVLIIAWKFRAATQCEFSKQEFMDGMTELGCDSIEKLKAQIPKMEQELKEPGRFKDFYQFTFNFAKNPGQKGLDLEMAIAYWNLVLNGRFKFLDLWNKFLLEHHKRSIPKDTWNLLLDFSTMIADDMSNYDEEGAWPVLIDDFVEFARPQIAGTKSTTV

For `CCC(=O)N[C@@H](Cc1ccc2ccccc2c1)C(=O)N[C@H](C(=O)N[C@@H](CCCCN)C(=O)NCCc1ccccc1)[C@@H](C)CC` [Example 11] (Propionyl-[2Nal]-Ile-Lys-NHPhenethyl), the IC50 under setting [1] is more than 10 µM.
In the case of `CCC(=O)N[C@@H](Cc1nc2cc(Cl)ccc2s1)C(=O)N[C@H](C(=O)N[C@@H](CCCCN)C(=O)NC(c1ccccc1)c1ccccc1)[C@@H](C)CC` [Example 153], the IC50 under setting [2] came to 1.9 µM.
Take `CCC(=O)N[C@@H](Cc1ccc2ccccc2n1)C(=O)N[C@H](C(=O)N[C@@H](CCCCN)C(=O)NC(c1ccccc1)c1ccccc1)[C@@H](C)CC` [Example 130]: the IC50 under setting [2] is 2.37 µM.
The same measure, in the same setting: the result for `CCC(=O)N[C@@H](Cc1nc2ccc(Cl)cc2s1)C(=O)N[C@H](C(=O)N[C@@H](CCCCN)C(=O)NC(c1ccc(F)cc1)c1ccc(F)cc1)C1CCCC1` [Example 158] reads 0.307 µM; that for `CCC(=O)N[C@@H](Cc1nc2ccc(Cl)cc2s1)C(=O)N[C@H](CN)Cc1ccccc1` [Example 86], 0.491 µM.
In the case of `CCC(=O)N[C@@H](Cc1nc2ccc(C(C)C)cc2s1)C(=O)N[C@@H](CNC(=O)CCN1CCOCC1)Cc1ccccc1` (stereo in doubt) [Example 94], the IC50 under setting [1] is more than 10 µM.
As to `CCCC(=O)N[C@@H](Cc1nc2ccc(C(C)C)cc2s1)C(=O)N[C@H](C(=O)N[C@@H](CCCCN)C(=O)N[C@@H](CC(C)C)C(N)=O)[C@@H](C)CC` [Example 276] (Butyryl-[Ala(6-iPr-benzothiazol-2-yl)]IKL-NH2), the IC50 under setting [2] was determined as 0.109 µM.
Still for that read-out and setting: the figure for `CCC(=O)N[C@@H](Cc1ccc2ccccc2c1)C(=O)N[C@H](C(=O)N[C@@H](CCCCN)C(=O)N[C@@H]1CCOc2cccc(Cl)c21)C1CCCC1` [Example 163] is 0.103 µM.
Turning to `CC[C@H](C)[C@H](NC(=O)[C@H](Cc1ccc2ccccc2c1)NC(=O)NC)C(=O)N[C@@H](CCCCN)C(=O)N[C@@H](CC(C)C)C(N)=O` [Example 169] ({NHMe-CO}-[2Nal]IKL-NH2), the IC50 under setting [1] is more than 10 µM.
As to `CCC(=O)N[C@@H](Cc1nc2ccc(C(C)C)cc2s1)C(=O)N[C@H](CNC(=O)C1CCN(CC)CC1)C1CCCCC1` [Example 70], the IC50 under setting [2] turned out to be 0.0451 µM.
Same read-out and setting: the result for `CCC(=O)N[C@@H](Cc1nc2ccc(C)cc2o1)C(=O)N[C@H](C(=O)N[C@@H](CCCCN)C(=O)N[C@@H]1CCOc2ccccc21)C1CCOCC1` [Example 194] reads 0.0938 µM; that for `CCC(=O)N[C@@H](Cc1ccc2ccccc2c1)C(=O)N[C@H](C(=O)N[C@@H](CCCCN(C)C)C(=O)NC(c1ccc(F)cc1)c1ccc(F)cc1)C1CCCC1` [Example 140], 0.483 µM.
Same read-out and setting: the result for `CCC(=O)N[C@@H](Cc1nc2ccc(CC)cc2o1)C(=O)N[C@H](C(=O)N[C@@H](CCCCN)C(=O)N[C@@H]1CCOc2ccccc21)C1CCOCC1` [Example 196] reads 0.0711 µM; that for `CCC(=O)N[C@@H](Cc1nc2ccc(CC)cc2s1)C(=O)N[C@H](C(=O)N[C@@H](CC1CCNCC1)C(=O)N[C@@H]1CCOc2ccccc21)C1CCOCC1` [Example 192], 0.171 µM.
Consider `CC[C@H](C)[C@H](NC(=O)[C@H](Cc1nc2ccc(Cl)cc2s1)NC(C)=O)C(=O)N[C@@H](CCCCN)C(=O)N[C@@H](CC(C)C)C(N)=O` [Example 4, (S)-2-((2S,3 S)-2-((S)-2-acetamido-3-(6-chlorobenzo[d]thiazol-2-yl)propanamido)-3-methylpentanamido)-6-amino-N—((S)-1-amino-4-methyl-1-oxopentan-2-yl)hexanamide], for which, under setting [2], the IC50 was 0.116 µM.
Take `CCC(=O)N[C@@H](Cc1cccc(C)n1)C(=O)N[C@H](C(=O)N[C@@H](CCCCN)C(=O)NC(c1ccccc1)c1ccccc1)[C@@H](C)CC` [Example 134]: the IC50 under setting [1] was more than 10 µM.
Consider `CCC(=O)N[C@@H](Cc1nc2ccc(C)cc2s1)C(=O)N[C@@H](Cc1ccncc1)C(=O)N[C@@H](CCCCN)C(=O)N[C@@H]1CCOc2ccccc21` [Example 184], for which the IC50 under setting [2] came to 0.149 µM.
With `CCC(=O)N[C@@H](Cc1nc2ccc(Cl)cc2s1)C(=O)N[C@H](C(=O)N[C@@H](CCCCN(C)C)C(=O)N[C@@H]1CCOc2ccccc21)C1CCCC1` [Example 34], the IC50 under setting [2] worked out at 0.0179 µM.
For the compound `CCC(=O)N[C@@H](Cc1nc2ccc(Cl)cc2s1)C(=O)N[C@H](C(=O)N[C@@H](CCCCN)C(=O)N[C@@H](c1ccccc1)c1cn(CCO)nn1)C1CCOCC1` [249 & 250], the IC50 under setting [2] was 0.12 µM.
Still for that read-out and setting: the result for `CCC(=O)N[C@H](CNC(=O)CC1CCCC1)Cc1nc2ccc(Cl)cc2s1` [Example 255] reads 0.802 µM.
With `CCC(=O)N[C@@H](Cc1nc(C)n(-c2ccccc2)n1)C(=O)N[C@H](CN)Cc1ccccc1` [DI-532], under setting [1], the IC50 is more than 10 µM.
As to `CCC(=O)N[C@@H](Cc1nc2ccc(C(C)C)cc2s1)C(=O)N[C@H](CN(C)C)C1CCCCC1` [Example 79, (S)—N—((S)-1-cyclohexyl-2-(dimethylamino)ethyl)-3-(6-isopropylbenzo[d]thiazol-2-yl)-2-propionamidopropanamide], the IC50 under setting [2] was 0.0936 µM.
Consider `CCC(=O)N[C@@H](Cc1nc(C)c(-c2cccc(Cl)c2)s1)C(=O)N[C@H](C(=O)N[C@@H](CCCCN)C(=O)N[C@@H]1CCOc2ccccc21)C1CCOCC1` [Example 207], for which, under setting [2], the IC50 was determined as 0.139 µM.
Regarding `CCC(=O)N[C@H](Cc1nc2ccc(Cl)cc2s1)C(=O)N[C@@H](C[C@H]1CC[C@H](CN)CC1)C(=O)N[C@@H](CCCCN)C(=O)N[C@@H]1CCOc2ccccc21` [Example 201], the IC50 under setting [1] was more than 10 µM.
Take `CCC(=O)N[C@H](CNC(=O)C1(N)CCCCCCC1)Cc1nc2ccc(C(C)C)cc2s1` [Example 116]: the IC50 under setting [2] is 2.2 µM.
Same read-out and setting: the figure for `CCC(=O)N[C@@H](Cc1nc2cc(F)ccc2s1)C(=O)N[C@H](C(=O)N[C@@H](CCCCN)C(=O)NC(c1ccccc1)c1ccccc1)C1CCCC1` [Example 27] is 1.2 µM.
With `CCC(=O)N[C@@H](Cc1nc2ccc(C)cc2s1)C(=O)N[C@H](C(=O)N[C@@H](CCCCN)C(=O)N[C@@H]1CCOc2ccccc21)C1CCOCC1` [Example 181], the IC50 under setting [2] was 0.176 µM.
On the same count and under the same terms, the figure for `CCC(=O)N[C@@H](Cc1ccc2ccccc2c1)C(=O)N[C@H](C(=O)N[C@@H](CCCCN)C(=O)NC(c1ccc(F)cc1)c1ccc(F)cc1)[C@@H](C)CC` [Example 128] is 0.321 ± 0.032 µM; for `CCC(=O)N[C@@H](Cc1nc2ccc(C(C)C)cc2s1)C(=O)N[C@H](CNC(=O)c1c[nH]cn1)C1CCCCC1` [Example 67] it is 0.257 µM; for `CC[C@H](C)[C@H](NC(=O)[C@H](Cc1nc2ccc(C(C)C)cc2s1)NC(=O)C1CC1)C(=O)N[C@@H](CCCCN)C(=O)N[C@@H](CC(C)C)C(N)=O` [Example 274] (Cyclopropanecarbonyl-[Ala(6-iPr-benzothiazol-2-yl)]IKL-NH2) it is 0.0825 µM.
With `CCC(=O)N[C@@H](Cc1nc2ccc(C(C)C)cc2s1)C(=O)N[C@H](C(=O)N[C@@H](CCCCN)C(=O)N[C@@H](CC(C)C)C(N)=O)C1CCOCC1` [Example 2287] (Propionyl-[Ala(6-iPr-benzothiazol-2-yl)][Gly(4-THP)]KL-NH2), the IC50 under setting [2] amounted to 0.28 µM.
The same measure, in the same setting: the result for `CCC(=O)N[C@@H](Cc1nc2ccc(C(C)C)cc2s1)C(=O)N[C@H](CN)[C@@H](C)CC` [Example 47, (S)—N-((2S,3S)-1-amino-3-methylpentan-2-yl)-3-(6-isopropylbenzo[d]thiazol-2-yl)-2-propionamidopropanamide] reads 0.095 ± 0.0158 µM; that for `CNC(=O)N[C@@H](Cc1nc2ccc(Cl)cc2s1)C(=O)N[C@H](C(=O)N[C@@H](CCCCN)C(=O)N[C@@H]1CCOc2ccccc21)C1CCOCC1` [Example 209], 0.278 µM.
On the same count and under the same terms, the result for `CC[C@H](C)[C@H](NC(=O)[C@H](Cc1nc2ccc(C(C)C)cc2s1)NC(C)=O)C(=O)N[C@@H](CCCCN)C(=O)N[C@@H](CC(C)C)C(N)=O` [Example 5, (S)-2-((2S,3 S)-2-((S)-2-acetamido-3-(6-isopropylbenzo[d]thiazol-2-yl)propanamido)-3-methylpentanamido)-6-amino-N—((S)-1-amino-4-methyl-1-oxopentan-2-yl)hexanamide] (Ac-[Ala(6-iPr-benzothiazol-2-yl)]IKL-NH2) reads 0.0401 µM; that for `CCC(=O)N[C@@H](Cc1nc2ccc(C(C)C)cc2s1)C(=O)N[C@@H](CC)C(=O)N[C@@H](CCCCN)C(=O)N[C@@H](CC(C)C)C(N)=O` [Example 281] (Propionyl-[Ala(6-iPr-benzothiazol-2-yl)][Abu]KL-NH2), 0.0374 µM.
On the same count and under the same terms, the figure for `CCC(=O)N[C@@H](Cc1nc2ccc(Cl)cc2s1)C(=O)N[C@H](C(=O)N[C@@H](CC1CCN(C)CC1)C(=O)N[C@@H]1CCOc2ccccc21)C1CCOCC1` [Example 42] is 0.299 µM.
As for `CCC(=O)N[C@@H](Cc1nc2ccc(C(C)C)cc2s1)C(=O)NCCN` [Example 53, (S)—N-(2-aminoethyl)-3-(6-isopropylbenzo[d]thiazol-2-yl)-2-propionamidopropanamide], the IC50 under setting [1] was more than 10 µM.
On to `CCC(=O)N[C@H](CNC(=O)C1(N)CCC1)Cc1nc2ccc(C(C)C)cc2s1` [Example 113], for which the IC50 under setting [2] was 4.11 µM.
Take `CCC(=O)N[C@@H](Cc1nc2ccc(Cl)cc2s1)C(=O)NCc1ccccn1` [Example 251]: the IC50 under setting [1] is more than 5 µM.
Take `CCC(=O)N[C@@H](Cc1nc2ccc(C)cc2s1)C(=O)N[C@@H](C[C@H]1CC[C@H](CN)CC1)C(=O)N[C@@H](CCCCN)C(=O)N[C@@H]1CCOc2ccccc21` [Example 185]: the IC50 under setting [2] was determined as 0.111 µM.
With `CCC(=O)N[C@@H](Cc1nc2ccc(Cl)cc2s1)C(=O)N[C@H](CN)Cc1ccccc1` (stereo in doubt) [Example 87], the IC50 under setting [1] was more than 10 µM.
As to `CCC(=O)N[C@@H](Cc1cn2cc(Cl)ccc2n1)C(=O)N[C@H](CN)Cc1ccccc1` [Example 108], the IC50 under setting [2] came out at 4.17 µM.
As to `CCC(=O)N[C@@H](Cc1ccc2ccccc2c1)C(=O)N[C@H](C(=O)N[C@@H](CCCCN)C(=O)N[C@@H]1CCCc2ccccc21)[C@@H](C)CC` [Example 15], under setting [2], the IC50 amounted to 0.461 µM.
With `CCC(=O)N[C@@H](Cc1nc2ccc(Cl)cc2s1)C(=O)N[C@H](CNC(=O)CCN1CCOCC1)Cc1ccccc1` [Example 92], the IC50 under setting [2] stood at 0.244 µM.
